{"source": "patent US11708562B2", "about": "“Differentiation of human embryonic stem cells” (Janssen Biotech, Inc., priority 2006, dated 2023)", "system": "H9P33, H9P44 and H9P48 cells", "assay": "Microarray analysis of definitive endoderm on MEFs vs MATRIGEL +/- Wnt-3A (Table VI)", "details": "DE treatment in low serum, on MATRIGEL", "experimental": "Controls for each group included cells plated on […]-coated dishes and cultured in MEF-conditioned medium or cells plated on MEFs and cultured in ES medium. All groups contained three biological replicates and each biological replicate was repeated on two separate gene chips.\nSample preparation, hybridization, and image analysis were performed according to the Affymetrix Human Genome U133 Plus 2.0 Array. Following normalization and a log transformation, data analysis was performed using OmniViz® software (MA) and […] (VizXLabs, WA). Significant differences in gene expression between the samples were evaluated using analysis of variance and an F-test with adjusted P-value (Benjamini and Hochberg correction) of ≤0.05. Only genes with a present call in at least one group were included in the analysis."}
{"substance": "Activin A: a member of the TGFβ superfamily; growth factor (R&D Systems) used to differentiate human embryonic stem cells", "values": [{"measurement": "mean normalized intensity (log format), 6-phosphofructo-2-kinasefructose-2,6-biphosphatase 4", "result": "−0.2429"}, {"measurement": "mean normalized intensity (log format), Cluster Incl. AB028021: Homo sapiens HNF-3beta mRNA for hepatocyte nuclear factor-3 beta", "result": "−1.5339"}, {"measurement": "mean normalized intensity (log format), ESTs", "result": "−3.574"}, {"measurement": "mean normalized intensity (log format), ESTs, Highly similar to IHH_HUMAN INDIAN HEDGEHOG PROTEIN PRECURSOR (H. sapiens)", "result": "−0.654"}, {"measurement": "mean normalized intensity (log format), ESTs, Moderately similar to JE0284 Mm-1 cell derived transplantability-associated protein 1b (H. sapiens)", "result": "−2.377"}, {"measurement": "mean normalized intensity (log format), ESTs, Weakly similar to FCE2 MOUSE LOW AFFINITY IMMUNOGLOBULIN EPSILON FC RECEPTOR (M. musculus)", "result": 0.4942}, {"measurement": "mean normalized intensity (log format), ESTs, Weakly similar to the 331st table hypothetical protein KIAA0555 (H. sapiens)", "result": "−1.574"}, {"measurement": "mean normalized intensity (log format), G protein-coupled receptor", "result": 1.507}, {"measurement": "mean normalized intensity (log format), G protein-coupled receptor 49", "result": 0.2655}, {"measurement": "mean normalized intensity (log format), Homo sapiens HNF-3beta mRNA for hepatocyte nuclear factor-3 beta", "result": "−2.718"}, {"measurement": "mean normalized intensity (log format), Homo sapiens KIAA0878 protein (KIAA0878), mRNA", "result": 2.0265}, {"measurement": "mean normalized intensity (log format), Homo sapiens Kell blood group (KEL), mRNA", "result": "−2.205"}, {"measurement": "mean normalized intensity (log format), Homo sapiens MLL septin-like fusion (MSF), mRNA", "result": "−3.292"}, {"measurement": "mean normalized intensity (log format), Homo sapiens Mix-like homeobox protein 1 (MILD1) mRNA", "result": "−1.546"}, {"measurement": "mean normalized intensity (log format), Homo sapiens Rho GTPase activating protein 6 (ARHGAP6), transcript variant 2, mRNA", "result": "−1.104"}, {"measurement": "mean normalized intensity (log format), Homo sapiens TBX3-iso protein (TBX3-iso), mRNA", "result": "−2.346"}, {"measurement": "mean normalized intensity (log format), Homo sapiens angiopoietin 2 (ANGPT2), mRNA", "result": "−2.93"}, {"measurement": "mean normalized intensity (log format), Homo sapiens ankyrin-like with transmembrane domains 1 (ANKTM1), mRNA", "result": "−1.109"}, {"measurement": "mean normalized intensity (log format), Homo sapiens apolipoprotein A-I (APOA1), mRNA", "result": "−1.471"}, {"measurement": "mean normalized intensity (log format), Homo sapiens apolipoprotein A-II (APOA2), mRNA", "result": "−1.033"}, {"measurement": "mean normalized intensity (log format), Homo sapiens arylsulfatase E (chondrodysplasia punctata 1) (ARSE), mRNA", "result": 0.283}, {"measurement": "mean normalized intensity (log format), Homo sapiens atrophin-1 interacting protein 1; activin receptor interacting protein 1 (KIAA0705), mRNA", "result": "−4.308"}, {"measurement": "mean normalized intensity (log format), Homo sapiens beta-site APP cleaving enzyme (BACE) mRNA", "result": "−2.0354"}, {"measurement": "mean normalized intensity (log format), Homo sapiens cDNA FLJ11550 fis, clone HEMBA1002970", "result": "−1.222"}, {"measurement": "mean normalized intensity (log format), Homo sapiens cDNA FLJ12993 fis, clone NT2RP3000197", "result": 0.1473}, {"measurement": "mean normalized intensity (log format), Homo sapiens cDNA FLJ13221 fis, clone NT2RP4002075", "result": 0.3557}, {"measurement": "mean normalized intensity (log format), Homo sapiens cardiac ventricular troponin C mRNA", "result": "−0.5497"}, {"measurement": "mean normalized intensity (log format), Homo sapiens cartilage linking protein 1 (CRTL1), mRNA", "result": "−1.315"}, {"measurement": "mean normalized intensity (log format), Homo sapiens cell adhesion molecule with homology to L1CAM (close homologue of L1) (CHL1), mRNA", "result": "−0.5412"}, {"measurement": "mean normalized intensity (log format), Homo sapiens chromosome 19, cosmid R31181", "result": "−0.2589"}, {"measurement": "mean normalized intensity (log format), Homo sapiens clone 23736 mRNA sequence", "result": "−0.04718"}, {"measurement": "mean normalized intensity (log format), Homo sapiens cryptic mRNA, complete cds", "result": 0.1049}, {"measurement": "mean normalized intensity (log format), Homo sapiens cystatin S (CST4), mRNA", "result": 0.9245}, {"measurement": "mean normalized intensity (log format), Homo sapiens cystatin SA (CST2), mRNA", "result": "−0.1022"}, {"measurement": "mean normalized intensity (log format), Homo sapiens cystatin SN (CST1), mRNA", "result": 0.07293}, {"measurement": "mean normalized intensity (log format), Homo sapiens cytidine deaminase (CDA), mRNA", "result": "−3.891"}, {"measurement": "mean normalized intensity (log format), Homo sapiens dual specificity phosphatase 4 (DUSP4), mRNA", "result": 0.9539}, {"measurement": "mean normalized intensity (log format), Homo sapiens fibroblast growth factor 8 (androgen-induced) (FGF8), mRNA", "result": "−4.328"}, {"measurement": "mean normalized intensity (log format), Homo sapiens fibroblast growth factor 17 (FGF17), mRNA", "result": "−0.8946"}, {"measurement": "mean normalized intensity (log format), Homo sapiens frizzled-related protein (FRZB), mRNA", "result": 0.565}, {"measurement": "mean normalized intensity (log format), Homo sapiens gastrin-releasing peptide (GRP), mRNA", "result": "−2.741"}, {"measurement": "mean normalized intensity (log format), Homo sapiens glycophorin B (includes Ss blood group) (GYPB), mRNA", "result": "−0.9473"}, {"measurement": "mean normalized intensity (log format), Homo sapiens glycophorin E (GYPE), mRNA", "result": "−2.016"}, {"measurement": "mean normalized intensity (log format), Homo sapiens glycophorin Erik STA (GPErik) gene", "result": "−1.194"}, {"measurement": "mean normalized intensity (log format), Homo sapiens growth differentiation factor 3 (GDF3), mRNA", "result": 1.673}, {"measurement": "mean normalized intensity (log format), Homo sapiens haptoglobin (HP), mRNA", "result": "−1.101"}, {"measurement": "mean normalized intensity (log format), Homo sapiens haptoglobin-related protein (HPR), mRNA", "result": "−2.6068"}, {"measurement": "mean normalized intensity (log format), Homo sapiens homeobox protein goosecoid mRNA, complete cds", "result": "−4.42"}, {"measurement": "mean normalized intensity (log format), Homo sapiens hypothetical protein FLJ10718 (FLJ10718), mRNA", "result": 2.605}, {"measurement": "mean normalized intensity (log format), Homo sapiens hypothetical protein FLJ10970 (FLJ10970), mRNA", "result": "−0.432"}, {"measurement": "mean normalized intensity (log format), Homo sapiens hypothetical protein FLJ11316 (FLJ11316), mRNA", "result": "−0.9047"}, {"measurement": "mean normalized intensity (log format), Homo sapiens hypothetical protein FLJ22252 similar to SRY-box containing gene 17 (FLJ22252), mRNA", "result": 1.368}, {"measurement": "mean normalized intensity (log format), Homo sapiens hypothetical protein FLJ23403 (FLJ23403), mRNA", "result": "−1.485"}, {"measurement": "mean normalized intensity (log format), Homo sapiens lumican (LUM), mRNA", "result": "−4.057"}, {"measurement": "mean normalized intensity (log format), Homo sapiens mRNA for GATA-6, complete cds", "result": 2.219}, {"measurement": "mean normalized intensity (log format), Homo sapiens mRNA for KIAA1409 protein, partial cds", "result": 0.3683}, {"measurement": "mean normalized intensity (log format), Homo sapiens mRNA; cDNA DKFZp434D0818 (from clone DKFZp434D0818)", "result": "−2.634"}, {"measurement": "mean normalized intensity (log format), Homo sapiens mRNA; cDNA DKFZp586J0624 (from clone DKFZp586J0624)", "result": "−0.8352"}, {"measurement": "mean normalized intensity (log format), Homo sapiens matrix metalloproteinase 14 (membrane-inserted) (MMP14), mRNA", "result": "−0.7235"}, {"measurement": "mean normalized intensity (log format), Homo sapiens phorbolin-like protein MDS019 (MDS019), mRNA", "result": "−1.119"}, {"measurement": "mean normalized intensity (log format), Homo sapiens presenilin stabilization factor b (PSF) mRNA", "result": "−0.8617"}, {"measurement": "mean normalized intensity (log format), Homo sapiens reserved (KCNK12), mRNA", "result": "−0.4687"}, {"measurement": "mean normalized intensity (log format), Homo sapiens retinoid X receptor, gamma (RXRG), mRNA", "result": "−2.375"}, {"measurement": "mean normalized intensity (log format), Homo sapiens sema domain, immunoglobulin domain (Ig), short basic domain, secreted, (semaphorin) 3E (SEMA3E), mRNA", "result": "−0.786"}, {"measurement": "mean normalized intensity (log format), Homo sapiens sema domain, seven thrombospondin repeats, (semaphorin) 5A (SEMA5A), mRNA", "result": "−1.533"}, {"measurement": "mean normalized intensity (log format), Homo sapiens solute carrier family 16 (monocarboxylic acid transporters), member 3 (SLC16A3), mRNA", "result": 0.7103}, {"measurement": "mean normalized intensity (log format), Homo sapiens solute carrier family 21 (prostaglandin transporter), member 2 (SLC21A2), mRNA", "result": 0.7114}, {"measurement": "mean normalized intensity (log format), Homo sapiens type VI collagen alpha 2 chain precursor (COL6A2) mRNA", "result": 1.7011}, {"measurement": "mean normalized intensity (log format), Homo sapiens, alpha-1 (VI) collagen", "result": "−3.662"}, {"measurement": "mean normalized intensity (log format), Homo sapiens, clone MGC: 4655, mRNA", "result": 2.3772}, {"measurement": "mean normalized intensity (log format), Human (clone 8B1) Br-cadherin mRNA", "result": "−2.179"}]}
